Patent US6916800B2, “Combination therapy including a matrix metalloproteinase inhibitor and an antineoplastic agent” (Pfizer Inc, priority 1998, dated 2005)

What was measured:
melanoma = conditions: 100 mg/kg; cited from earlier work
[1] = 50 mg/kg bid. p.o.; cited from earlier work
[2] = tested on: advanced, rapidly progressive, treatment-refractory solid tumor cancers (colorectal, pancreatic, ovarian, prostate); conditions: cited from earlier work
[3] = dose of 25 mg/kg/day; cited from earlier work
MX-1 tumors [4] = test: MX-1 Adjuvant Model: cyclophosphamide then MMPI, mean days to tumor weight of 1.5 g; format: in vivo, Mice
Experimental: Mice were implanted with MX-1 tumors and allowed to grow to 50-100 mm3. The animals were dosed with cyclophosphamide (100 or 80 mpk). This was considered Day 1. Two weeks later the animals were pair matched after tumor regression and dosing BID with the MMPI was begun until the end of the experiment. Tumors were measured weekly.

MX-1 tumors [5] = test: MX-1 Breast Tumor with Taxol: MMPI BID, endpoint 1.5 g; format: in vivo, Mice; conditions: MX-1 tumor
Experimental: MDS=mean days to tumor weight of 1.5 g 4. MX-1 Breast Tumor with Taxol:
Mice were implanted with MX-1 tumors and allowed to grow to 50-100 mg. The animals were pair matched and this was considered Day 1. Treatment with MMPI was begun BID on Day 1 until the end of the experiment. […] Tumors were measured weekly until an endpoint of 1.5 g was reached.

SK-mes tumors = test: SK-mes Tumor with Taxol: MMPI BID, endpoint 1.0 g; format: in vivo, Mice
Experimental: 5. SK-mes Tumor with Taxol
(§1) Mice were implanted with SK-mes tumors and allowed to grow to 50-100 mg. The animals were pair matched and this was considered Day 1. Treatment with MMPI was begun BID on Day 1 until the end of the experiment. Taxol was injected IP (18 or 9 mpk) QD for 5 days (days 1-5). Tumors were measured weekly until an endpoint of 1.0 g was reached.

PC-3 tumor cells = test: Pancreatic Cell (PC-3) Model: MMP inhibitor with cisplatin, tumor volume; format: in vivo; conditions: PC3 model, n=10
Experimental: 1. Pancreatic Cell (PC-3) Model:
In this study, the test groups were a vehicle control, Compound M14, Compound M14 with cisplatin and cisplatin alone with n=10 for each group. The tumors were measured with a caliper and the volume calculated using the formula for the volume of an elipsoid. The cisplatin dose was 10 mpk administered by the intraperitonal route on day 8 post injecion of tumor cells Compound M14, 50 mpk, was first administered about 6:00 pm the evening of the same day that the tumor cells were injected in the morning. The same dose of Compound M14 was administered bid for each following day. Tumor volume (mm^3) was measured on day 25.

HT-29 tumors = test: HT-29 Tumor with Irinotecan: MMPI BID, endpoint 1.0 g; format: in vivo, Mice
Experimental: 6. HT-29 Tumor with Irinotecan
as §1, with “HT-29” for “SK-mes”, “Irinotecan” for “Taxol”, “(100” for “(18”, “50” for “9”

MX-1 breast tumor = test: Breast Tumor Model: MX-1 with Compound M14 and Taxol, tumor volume; format: in vivo, nude mice; conditions: for Tumor Volume at Day 25: MX-1 model, nude mice
Experimental: This study was carried out essentially as PC-3 model. MX-1 breast tumor pieces were implanted (with a trocar) into nude mice with n=10 per group. Dosing with Compound M14 (10 mpk or 50 mpk, PO bid) was initiated when the tumors reached a size of 60-120 mg. Dosing was continued for 26 days. Taxol was administered at a dose of 9 mpk for the first five days following the start of dosing by the interperitonal route. The tumors were measured using a caliper and the volume calculated using the formula for the volume of an elipsoid.

[6] = dose dependent at 27, 125 and 375 µg; cited from earlier work
colonic epithelia = conditions: variety of cell model systems including colonic epithelia; cited from earlier work
[7] = doses of 15 mg/kg/day; cited from earlier work
Primary tumors = conditions: cited from earlier work
[8] = mmpi alone, Compound M14 20 mpk BID
[9] = mmpi alone, Compound M14 100 mpk BID
[10] = taxol 9 mpk + Compound M14 20 mpk BID
[11] = taxol 9 mpk + Compound M14 100 mpk BID
[12] = taxol 18 mpk + Compound M14 20 mpk BID
[13] = taxol 18 mpk + Compound M14 100 mpk BID

## 2-Pyrolylthiochromone
melanoma
  inhibition: 37%

## CNC(=O)[C@H](CC1CCCCC1)NC(=O)[C@H](CC(C)C)[C@H](O)C(=O)NO (relative stereo) [BB-1433, Butanediamide, N1-[1(cyclohexylmethyl)-2(methylamino)-2-oxoethyl]-N4,3-dihydroxy-2-(2-methylpropyl)-, [2R[N1(S*),2R*,3S*]]-]
[1]
  bone mineral density loss: inhibited

## CNC(=O)[C@@H](NC(=O)[C@H](CC(C)C)[C@H](O)C(=O)NO)C(C)(C)C (relative stereo) [marimastat, N4-[2,2-dimethyl-1-[(methylamino)carbonyl]propyl]-N1,2-dihydroxy-3 (2-methylpropyl)-, [2S-[N4(R*),2R*,3S*]]-)]
[2]; clinical trials
  most common drug-related toxicity: musculoskeletal pain and stiffness
[2]; patients, Phase I/II
  rise of cancer-specific antigens used as surrogate markers for biological activity: dose-related reduction

## CC1(C)SCCN(S(=O)(=O)c2ccc(Oc3ccc(-n4ccnc4)cc3)cc2)[C@H]1C(=O)NO [3(S)-N-hydroxy-4-(4-[4-(imidazol-1-yl)phenoxy]benzenesulfonyl)-2,2-dimethyl-tetrahydro-2H-1,4-thiazine-3-carboxamide]
[3]
  weight loss inhibition: gave 97.5%

## C#CCN1CCC(C(=O)NO)(S(=O)(=O)c2ccc(Sc3ccccc3)cc2)CC1.Cl [Compound M14, N-hydroxy-4-[[4-(phenylthio)phenyl]sulfonyl]-1-(2-propynyl)-4-piperidinecarboxamide monohydrochloride]
MX-1 tumors [4]; cyclophosphamide 0 mpk (so in the source), then Compound M14 200 mpk BID
  MDS (mean days to tumor weight of 1.5 g): 53.9 days
MX-1 tumors [4]; cyclophosphamide 80 mpk, then Compound M14 50 mpk BID
  MDS (mean days to tumor weight of 1.5 g): 44.2 days
MX-1 tumors [4]; cyclophosphamide 100 mpk, then Compound M14 50 mpk BID
  MDS (mean days to tumor weight of 1.5 g): 43.7 days
MX-1 tumors [4]; cyclophosphamide 100 mpk, then Compound M14 200 mpk BID
  MDS (mean days to tumor weight of 1.5 g): 52.7 days
MX-1 tumors [5]; [8]
  MDS (MDS = 1.5 g): 34.7 days
MX-1 tumors [5]; [9]
  MDS (MDS = 1.5 g): 32.2 days
MX-1 tumors [5]; [10]
  MDS (MDS = 1.5 g): 39.3 days
MX-1 tumors [5]; [11]
  MDS (MDS = 1.5 g): 46.7 days
MX-1 tumors [5]; [12]
  MDS (MDS = 1.5 g): 59.3 days
MX-1 tumors [5]; [13]
  MDS (MDS = 1.5 g): 61 days
MX-1 tumors [5]; taxol + mmpi as printed, taxol 9 mpk IP QD days 1-5, no MMPI dose printed
  MDS (MDS = 1.5 g): 30.1 days
MX-1 tumors [5]; taxol + mmpi as printed, taxol 18 mpk IP QD days 1-5, no MMPI dose printed
  MDS (MDS = 1.5 g): 56 days
SK-mes tumors; [8]
  MDS (MDS = 1.0 g): 18 days
SK-mes tumors; [9]
  MDS (MDS = 1.0 g): 24.7 days
SK-mes tumors; [10]
  MDS (MDS = 1.0 g): 34.1 days
SK-mes tumors; [11]
  MDS (MDS = 1.0 g): 34.8 days
SK-mes tumors; [12]
  MDS (MDS = 1.0 g): 39.5 days
SK-mes tumors; [13]
  MDS (MDS = 1.0 g): 43 days
PC-3 tumor cells; Compound M14 50 mpk bid with cisplatin 10 mpk ip day 8
  Tumor Volume at Day 25: 110 mm^3
PC-3 tumor cells; Compound M14 alone, 50 mpk bid
  Tumor Volume at Day 25: 480 mm^3
HT-29 tumors; Irinotecan 50 mpk + Compound M14 20 mpk BID
  MDS (MDS = 1.0 g): 36.1 days
HT-29 tumors; Irinotecan 50 mpk + Compound M14 100 mpk BID
  MDS (MDS = 1.0 g): 44.4 days
HT-29 tumors; Irinotecan 100 mpk + Compound M14 20 mpk BID
  MDS (MDS = 1.0 g): 40.6 days
HT-29 tumors; Irinotecan 100 mpk + Compound M14 100 mpk BID
  MDS (MDS = 1.0 g): 51.4 days
HT-29 tumors; [8]
  MDS (MDS = 1.0 g): 36 days
HT-29 tumors; [9]
  MDS (MDS = 1.0 g): 37.9 days
MX-1 breast tumor; Compound M14 10 mpk or 50 mpk PO bid for 26 days with Taxol 9 mpk for the first five days
  response (tumor volume): improved response
MX-1 breast tumor; Compound M14 @ 10 mpk + taxol @ 9 mpk
  Tumor Volume at Day 25: 240 mm^3
MX-1 breast tumor; Compound M14 @ 10 mpk PO bid alone
  Tumor Volume at Day 25: 960 mm^3
MX-1 breast tumor; Compound M14 @ 50 mpk + taxol @ 9 mpk
  Tumor Volume at Day 25: 480 mm^3
MX-1 breast tumor; Compound M14 @ 50 mpk PO bid alone
  Tumor Volume at Day 25: 1260 mm^3

## CC(C)(S)[C@@H](N)C(=O)O [D-penicillamine]
[6]
  allergic encephalitis symptom scores: reduced

## CCc1c2c(nc3ccc(OC(=O)N4CCC(N5CCCCC5)CC4)cc13)-c1cc3c(c(=O)n1C2)COC(=O)[C@]3(O)CC [Irinotecan, reference compound]
HT-29 tumors; Irinotecan alone 50 mpk IP QD days 1-5
  MDS (MDS = 1.0 g): 38.1 days
HT-29 tumors; Irinotecan alone 100 mpk IP QD days 1-5
  MDS (MDS = 1.0 g): 36.7 days

## CC(=O)O[C@H]1C(=O)[C@@]2(C)[C@H]([C@H](OC(=O)c3ccccc3)[C@]3(O)C[C@H](OC(=O)[C@H](O)[C@@H](NC(=O)c4ccccc4)c4ccccc4)C(C)=C1C3(C)C)[C@]1(OC(C)=O)CO[C@@H]1C[C@@H]2O [Taxol, reference compound]
SK-mes tumors; taxol alone 9 mpk IP QD days 1-5
  MDS (MDS = 1.0 g): 26.1 days
SK-mes tumors; taxol alone 18 mpk IP QD days 1-5
  MDS (MDS = 1.0 g): 31.5 days
MX-1 breast tumor; taxol alone, 9 mpk ip first five days
  Tumor Volume at Day 25: 1280 mm^3

## C[C@H](CCC(=O)O)[C@H]1CC[C@H]2[C@@H]3[C@@H](O)C[C@@H]4C[C@H](O)CC[C@]4(C)[C@H]3CC[C@]12C [URSO]
Colonic epithelia
  cytotoxicity: non cytotoxic
[7]
  tolerability and toxicity: extremely well tolerated and without toxicity

## N.N.[Cl][Pt][Cl] [cisplatin, Platinum, diamminedichloro-, (SP-4-2)-, reference compound]
PC-3 tumor cells; cisplatin alone, 10 mpk intraperitoneal on day 8
  Tumor Volume at Day 25: 630 mm^3

## O=P1(N(CCCl)CCCl)NCCCO1 (stereo not shown) [cyclophosphamide, reference compound]
MX-1 tumors [4]; cyclophosphamide 80 mpk alone
  MDS (mean days to tumor weight of 1.5 g): 37.2 days
MX-1 tumors [4]; cyclophosphamide 100 mpk alone
  MDS (mean days to tumor weight of 1.5 g): 39.5 days

## endostatin
Primary tumors; in vivo
  toxicity: not observed
Primary tumors; non-refolded suspensions
  primary tumor response: regressed to dormant microscopic lesions
